Assay results from patent publication US20100081679A1, “DIAMINOPYRIMIDINES AS FUNGICIDES” (Bayer CropScience AG, priority 2007, published 2010).
Marks after values point to notes of the source that are not given here.

Experiment: logP determination via retention times, calibrated with unbranched alkan-2-ones
Format: physicochemical
Details: linear gradient 10% to 95% acetonitrile
[1] = HPLC reversed-phase C 18, EEC Directive 79/831 Annex V.A8, method *: 40° C., 0.1% aqueous formic acid and acetonitrile
[2] = HPLC on reversed-phase C 18, method **: 43° C., 0.1% aqueous phosphoric acid and acetonitrile

| logP [1] | logP [2] | Structure (SMILES) | further results |
| --- | --- | --- | --- |
| 1.47* |  | CC(C)(O)c1cccc(Nc2ncc(Cl)c(NC3CC3)n2)c1 [compound 784] |  |
|  | 2.56** | COc1cc(Nc2ncc(C(F)(F)F)c(NC3CC3)n2)cc(OC)c1OC [compound 719] |  |
|  |  | CC(Nc1nc(Nc2ccc(F)cc2)ncc1Cl)C1CC1 (stereo not drawn) [compound 167] | logP (HPLC on reversed-phase C18, method *: 40° C., 0.1% aqueous formic acid and acetonitrile): 2.27* |
| 2.44* |  | CCc1cccc(Nc2ncc(Br)c(NC3CC3)n2)c1 [compound 775] |  |
|  | 2.21** | CN(CC1CC1)c1nc(Nc2cccc(N3CCCC3=O)c2)ncc1Cl [compound 964] |  |
|  |  | O=C(Nc1cccc(Nc2ncc(Cl)c(NCC3CC3)n2)c1)c1ccccc1 [compound 557] | logP (HPLC on reversed-phase C 18, EEC Directive 79/831 Annex V.A8, method *: 40° C., 0.1% aqueous formic acid and acetonitrile): 2.21* |
